The source of these data is paper PMC12559910, “A New N6‐Methyladenosine Inhibitor, Celastrol, Alleviates Rheumatoid Arthritis via Targeting IGF2BP3” (MedComm, 2025).

pKd: −log10 of the molar value.

This test deals with T1, recombinant IGF2BP3 protein (Homo sapiens, UniProt O00425).
T1 construct: recombinant, amine-coupled to CM5 chip
Put plainly: SPR (Biacore T200, CM5 chip, steady-state fit). The test is classed as binding.

T1 sequence (O00425 whole entry): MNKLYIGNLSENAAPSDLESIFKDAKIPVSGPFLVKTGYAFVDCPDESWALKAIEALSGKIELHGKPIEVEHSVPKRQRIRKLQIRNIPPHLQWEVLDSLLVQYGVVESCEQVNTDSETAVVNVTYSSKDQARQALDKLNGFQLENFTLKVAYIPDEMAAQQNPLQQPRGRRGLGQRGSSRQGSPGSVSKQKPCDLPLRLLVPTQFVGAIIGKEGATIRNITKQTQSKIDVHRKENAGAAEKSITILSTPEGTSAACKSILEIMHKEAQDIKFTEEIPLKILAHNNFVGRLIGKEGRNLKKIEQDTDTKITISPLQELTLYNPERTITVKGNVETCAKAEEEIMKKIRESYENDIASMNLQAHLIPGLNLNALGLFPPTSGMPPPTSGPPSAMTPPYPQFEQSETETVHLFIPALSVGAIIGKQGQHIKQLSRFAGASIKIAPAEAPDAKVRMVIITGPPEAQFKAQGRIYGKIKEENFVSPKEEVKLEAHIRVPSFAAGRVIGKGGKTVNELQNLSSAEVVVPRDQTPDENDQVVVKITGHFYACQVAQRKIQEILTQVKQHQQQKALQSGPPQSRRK

With `CC1=C(O)C(=O)C=C2C1=CC=C1[C@@]2(C)CC[C@@]2(C)[C@@H]3C[C@](C)(C(=O)O)CC[C@]3(C)CC[C@]12C` [celastrol], the pKd is 5.78.
